Experiments:
[1] = system: infected wound on the skin; assay: Topical gNO applied to an infected wound on the skin; assay type: in vivo; details: 200 ppm gNO topically applied
From the text: For anti-inflammatory applications of high concentrations of gNO, it is hypothesized that the high dose of NO acts as a feedback loop to down regulate iNOS, and/or acts as a antioxidant on peroxynitrite and other reactive oxygen species and/or remove the stimulus such as bacterial load all leading to the amelioration of high levels of NO or its reactants resulting in damaging pathogenesis. This hypothesis is supported by testing results of the Applicant wherein 200 ppm gNO was topically applied to an infected wound on the skin. […] It is hypothesized that the body stopped producing the “bad” NO causing pathogenic inflammation.

[2] = system: normal human fibroblast cells (NHLF); assay: Viability under 25,000 ppm gNO (Example 5), NHLF; assay type: cell-based
Experimental: (§1) After 24 hours, the A549, NCI-H23, NCI-H460, HTB-58, H2170 and H441 cells were treated with 25,000 ppm gNO or air (control) for 1 minute, 3 minutes, 6 minutes, 9 minutes, 10 minutes, 20 minutes, and 30 minutes. Immediately following treatment, the viability of the cells was determined using a colorimetric MTS (3-(4,5-dimethylthiazol-2-yl)-5-(3-carboxymethoxyphenyl)-2-(4-sulfophenyl)-2H-tetrazolium, inner salt) cell proliferation assay (commercially available as the CellTiter 960 Aqueous One Solution Cell Proliferation Assay (MTS) from Promega, Madison, Wis., USA) according to the manufacturer's protocol. Briefly, 20 mL of MTS solution was added to each well and the cells were incubated for 2 hours at 37° C. Absorbance was measured at 490 nm for each well using a micro-plate reader (commercially available from Dynex Technologies, Chantilly, Va., USA). The relative percentage of cell survival (viability) was calculated by dividing the absorbance of treated cells by that of control cells for each experimental time point.
The purpose of this example is to illustrate the effects on normal human cell lines compared to the effects on cancerous cell lines of high-dosage gNO. The above study was repeated. […]

[3] = system: non-small cell lung cancer (NSCLC) cells lines; assay: MTS cell proliferation assay, 25,000 ppm gNO, NSCLC cell lines taken together (Examples 4 and 5); assay type: cell-based, human
From the text: The purpose of this example is to illustrate the tumorcidal activity of high-dosage gNO. We examined the cellular sensitivity to 25,000 ppm of gNO on 5 non-small cell lung cancer (NSCLC) cells lines by an MTS cell proliferation assay.
Human lung cancer cell lines A549, NCI-H23, NCI-H460, HTB-58, H2170, and H441 (commercially available from American Type Culture Collection (“ATCC”), Manassas, Va.) were maintained in culture medium recommended by ATCC. All media were supplemented with 1% penicillin/streptomycin and 10% fetal bovine serum (commercially available from Invitrogen Gibco-BRL, Burlington, Ontario, Canada). All cell lines were incubated in a humidified incubator at 37° C. supplied with 5% carbon dioxide. The cell lines were tested regularly for the absence of Mycoplasma infections. The cells were routinely maintained in 25 cm tissue culture flasks (commercially available from BD Biosciences Discovery Labware, Oakville, Ontario, Canada) and were harvested by 0.25% trypsin (commercially available from Invitrogen-Gibco-BRL) treatment when they were in a logarithmic phase of growth for all experiments. […]
as §1, with “Briefly, 20 mL of MTS solution was added to each well and the cells were incubated for 2 hours at 37° C.” left out, “point. […]” for “point.”

SMILES: [N]=O [gNO, nitric oxide]
- bacterial load [1]: significantly reduced
- inflammatory bodies (histological results) [1]: significant reduction
- serum NOX levels ([1]; compared to the infected control): lower
- viability ([2]; after 6 minutes, FIG. 8 C): about 30%
- viability of normal lung fibroblasts ([2]; after 15 minutes of exposure): 30%
- viability at 25000 ppm ([3]; Homo sapiens, 0.15 h, at 9 minutes, read-out: viability, mean value of the other three NSCLC lines): 10.7 ± 2.08%
- cells killed, all five cancer cell lines ([3]; between 6 and 9 minutes, Example 4): 75-95%
- cells killed, all five cancer cell lines ([3]; between about 6 and about 9 minutes, repeat study, Example 5): 75-95%
